In patent US20110045459A1, “Molecular determinants of EGFR kinase inhibitor response in glioblastoma” (priority 2005, published 2011):
“Also recorded” adds a separate entry of the source.

Tested on: U87MG glioblastoma cells
Experiment: Relative sensitivity to erlotinib of U87MG lines expressing PTEN, EGFR, EGFRvIII (crystal violet)
Format: cell-based
Details: erlotinib 0-10 μM, 10-14 days, U87-PTEN
Method: FIG. 3. […] 1000 cells/well of each cell line was seeded into 96-well plates in 8 replicates. […] Experiments were repeated 3 times in 8 replicates for each condition.
Following retroviral transduction we selected the following stable cell lines: U87-PTEN, U87-EGFR, U87-PTEN-EGFR, U87-EGFRvIII and U87-PTEN-EGFRvIII.
Functional analysis of effect of EGFR, EGFRvIII and PTEN coexpression: Human EGFR and EGFRvIII cDNAs were retrovirally introduced into U87MG and U87MG-PTEN over-expressing cells and selected for antibiotic resistance. Multiple stable clones were analyzed for the expression of PTEN, EGFR or EGFRvIII by immunoblot. […] The background reading of the wells containing medium alone was subtracted from experimental wells.

## C#Cc1cccc(Nc2ncnc3cc(OCCOC)c(OCCOC)cc23)c1 [Erlotinib]
  sensitization of glioblastoma cells to erlotinib: EGFRvIII and PTEN co-expression sensitizes glioblastoma cells to erlotinib; also recorded: EGFRvIII sensitized glioblastoma cells to erlotinib, but only when PTEN was co-expressed
